# From patent US20250352524A1, “PREVENTION OF METASTATIC OUTGROWTH USING TEAD INHIBITORS” (Georgetown University, priority 2024, published 2025)
# “Also recorded” adds a separate entry of the source.
# Experiments:
# naïve C57/BL6 mice = assay: Tumor naïve C57/BL6 mice treated for two weeks, lung immune microenvironment; type: in vivo
# Protocol: (§1) To determine iTEAD effect on lung immune microenvironment at steady state, naïve C57/BL6 mice were treated with iTEAD. […] In the absence of cancer cells in these naïve mice, no change in CD8+ T-cells was observed between treatment groups. […] On the cancer cell front, TEAD inhibition had no effect on proliferation yet reduced migration and 3D spheroid collective invasion of breast cancer cells in vitro.
# To investigate how TEAD inhibition influences the immune microenvironment in the normal lung, C57BL/6 mice were treated with 30 mg/kg of VT107 or vehicle control via oral gavage for 2 weeks. Lung, spleen and blood tissues were harvested for immune cell analysis and RNA-sequencing (FIG. 9, Panel G). […] RNA-seq data was analyzed by Cibersortx (Chen et al., 2018) to deconvolute the abundance of immune cell types in the lung tissue using single-cell RNA-seq datasets.
# Due to the shifts in immune signaling observed in the lung tissue upon TEAD inhibition (FIG. 9), immune cell populations were first analyzed by flow cytometry in the lungs and spleens of tumor naïve mice. Consistent with the Cibersort analysis of RNA-seq data, there was a decrease in the monocytes population and an increase in the tissue-resident alveolar macrophages (AM) (FIG. 10, Panel A). […] Next, it was sought to determine the specific effects of iTEAD treatment on lung resident versus bone-marrow derived macrophages, as the dynamics of these cell populations are crucial for the establishment of the metastatic niche (Ries et al., 2014; Qian et al., 2011). Macrophages were retrieved from the lungs by isolating F4/80+ cells, a specific marker for murine macrophages, by FACS (fluorescence-activated cell sorting) as well as bone marrow-derived macrophages from the femurs of naïve C57BL/6 mice that were then differentiated in vitro using macrophage colony stimulating factor (M-CSF). Macrophages were treated with 1 μM of VT107 for 24 hours before the conditioned media was collected and analyzed on a cytokine array. […] There was no change in the level of the other cytokines detected (FIG. 10, Panel B).
# Single cell suspensions were washed 2× with PBS. Cells were then stained with Zombie NIR Fixable Viability Kit (Biolegend, 423106) or Zombie Aqua Fixable Viability Kit (Biolegend, 423102) for 20 minutes at room temperature, to identify dead cells. Next, cells were washed with FACS buffer (1×PBS+2% FBS) and incubated with conjugated antibodies binding to cell surface proteins, at 4 °C for 30 minutes. A combination of the following antibodies were used: anti-CD45-Spark Blue 550 (Biolegend, 103166), anti-CD3-PercP/Cy5.5 (Biolegend, 100217), anti-CD4-Pacific Blue (Biolegend, 116007), anti-CD8-BV785 (Biolegend, 100750), anti-CD25-BV650 (Biolegend, 102038), anti-CD45-AF700 (Biolegend, 103128), anti-CD45R (B220) (Biolegend, 563103), anti-SiglecF-APC (Miltenyi Biotec, 130-102-241), anti-CD11b-PE/Dazzle (Biolegend, 108745), anti-CD11c-FITC (Biolegend, 117306), anti-F480-PE/Cy7 (Biolegend, 123114), anti-Ly6G-BV785 (Biolegend, 127645), anti-Ly6C-BV570 (Biolegend, 128030), anti-CD206-AF700 (Biolegend, 141734), and anti-CD86-AF488 (Biolegend, 105018). Cells were fixed and permeabilized using the BD Cytofix/Cytoperm Fixation/Permeabilization Kit (BD Biosciences, #554714) prior to incubation with anti-Foxp3-AF647 (Biolegend, 126407), anti-Gata3-PE (Biolegend, 653803), anti-RORy t-BV421 (Biolegend, 562894), and anti-T-bet-BV711 (BD Biosciences, 4B10). After staining, cells were washed 2× and subjected to flow cytometry analysis using the BD FACSymphony Δ3 flow cytometer analyzer. Results were analyzed using FCS Express 7 Research (De Novo Software).
# The total RNA from tissue or cell lines was extracted using RNeasy Mini Kit (Qiagen, #74104) according to the manufacturer's instructions. Total RNA integrity was assessed with the Agilent 2100 Bioanalyzer. The library preparation and next-generation sequencing (NGS) were performed at Novogene Corporation Inc. (Sacramento, CA, USA). […]
# [1] = test system: DCIS and DCIS-Δ4 mixed 3D spheres; assay: Invasion of DCIS and DCIS-Δ4 mixed 3D spheres in collagen:matrigel mix; type: cell-based, human
# Protocol: as §1
# 4T1 cancer cells = assay: Real Time Cell Analysis, cytotoxicity of T-cells +/- macrophages towards 4T1 cells; type: cell-based, mouse
# From the text: To investigate whether the effect of iTEAD treatment on macrophages can enhance their crosstalk with T-cells in the lung microenvironment, peritoneal macrophages+/−iTEAD were first isolated and characterized as a model of resident macrophages for ex vivo experiments (FIG. 14, Panel A). It was observed that treatment with VT107 decreased gene expression of M2-like and fibrosis regulators, Aldh1a1 and Cc117 (Chen et al., 2020), as well as TEAD4 and its downstream target gene Ankrd1. […] The iTEAD pretreated peritoneal macrophages and untreated T-cells isolated from the spleen of tumor naïve mice (FIG. 14, Panel A) were then mixed for 5 hours before collecting the conditioned media for analysis. […] Next, these immune cell mixes were added to 4T1 spheres that were embedded into matrix. […] This effect was reversed by an IL12 neutralizing antibody. No change in cleaved caspase-3 in 4T1 cells in the presence of VT107-treated T-cells or macrophages alone, was detected at 24 hours (FIG. 14, Panels C and D). 4T1 cells were then plated and allowed to attach on electrode-coated arrays to monitor cancer cell viability before the addition of macrophages+/−iTEAD and T-cells. […]
# Cell analysis was done using E-plates from xCELLigence, (Agilent, #5469830001) according to the manufacturer's protocol. […] Cell index was measured by changes in electric impedance at 15 min intervals. […]
# [2] = 30 mg/kg oral gavage 2 weeks, flow cytometry
substance,measurement,setting,value
VT107,alveolar macrophages in the lungs,naïve C57/BL6 mice; [2],increase
same,infiltrating monocytes/macrophages in the lungs,naïve C57/BL6 mice; [2],decrease
same,alveolar macrophages in the lungs,"naïve C57/BL6 mice; 30 mg/kg oral gavage 2 weeks, flow cytometry, listed as iTEAD",robust increase; also recorded: shift
same,leukocytes fraction,naïve C57/BL6 mice; Cibersortx of RNA-seq,slight increase
same,monocyte fraction in lung tissue,naïve C57/BL6 mice; Cibersortx of RNA-seq,reduced
same,myeloid cells' fraction including tissue resident macrophages,naïve C57/BL6 mice; Cibersortx of RNA-seq,expanded
same,IL12 signaling pathway in lung,naïve C57/BL6 mice; Ingenuity pathway analysis,increase
same,"inflammation (cytokine storm, S100 family, wound healing and fibrosis signaling pathways) in lung",naïve C57/BL6 mice; Ingenuity pathway analysis,overall reduction
same,"lung gene expression, downregulated compared to upregulated genes",naïve C57/BL6 mice; RNA-sequencing,significantly higher number of downregulated genes
same,spleen gene expression,naïve C57/BL6 mice; RNA-sequencing,minimal changes
same,CD3+ cells in tumor naïve lungs,naïve C57/BL6 mice; flow cytometry,increase
same,CD4+ or CD8+ T-cell populations in tumor naïve lungs,naïve C57/BL6 mice; flow cytometry,not specifically
same,"total macrophages, dendritic cells, eosinophils or neutrophils","naïve C57/BL6 mice; flow cytometry, analyzed tissues",No significant change
same,alveolar macrophages and infiltrating monocytes/macrophages in spleen or blood,"naïve C57/BL6 mice; flow cytometry, listed as iTEAD",no change
same,CD8+ T-cells,"naïve C57/BL6 mice; naïve mice, between treatment groups",no change
same,migration of breast cancer cells in vitro,[1],reduced
same,3D spheroid collective invasion,[1]; vs control,reduced
same,cytotoxicity of T-cells alone,4T1 cancer cells; extended VT107 treatment,slight increase
same,T-cells' cytotoxicity towards 4T1 cells,"4T1 cancer cells; macrophages pretreated 24 hrs with 1 μM VT107, compared to T-cells alone",significantly increased
